In assay [1] the target is T1, N-SH3 D138A (Crkl) (Homo sapiens, UniProt P46109, D138A).
T1 construct: The construct encoding the N-SH3 domain of Crkl was subcloned in a pET28b+ plasmid vector; His-tag; made in house; host or cells: E. coli BL21
The assay is described as follows: Stopped-flow displacement, N-SH3 D138A:dansylated C3G277–296 complex. The class given is binding. Conditions: pH 7.5, D138A, 50 mM Hepes pH 7.5, 10 °C. As to the method: (§1) We rapidly mixed a constant concentration of C3G277–296 peptide (0.5 µM) versus increasing concentrations of N-SH3 (ranging from 0.5 to 5 µM) and the observed rate constants (kobs) obtained at different ionic strength conditions (buffer Hepes 50 mM, pH 7.0, 0.15 M, 0.3 M, 0.5 M and 1 M NaCl) were plotted as function of concentration of N-SH3 and fitted with a linear equation (Figure 1). By following previously derived equations [19, 20], the dependence of kobs as function of [N-SH3] was fitted with Equation (1), taking into account the non-pseudo-first order conditions, allowing us to calculate the microscopic association rate constant (kon), the microscopic dissociation rate constant (koff) of the binding reaction and the equilibrium dissociation rate constant KD, such as koff/kon. To increase the reliability of the calculated KD, we resorted to directly obtaining a koff value through displacement experiments (Table 1), in which a preincubated complex of N-SH3 domain and dansylated C3G277–296 peptide (at the concentration of 0.5 and 2 µM, respectively) were rapidly mixed versus a high excess of nondansylated peptide (ranging from 20 to 40 µM). In agreement with the theory in [21], the observed rate constants were insensitive to displacer concentration. In all binding and displacement experiments conducted, traces were satisfactorily fitted with a single-exponential equation. (1) kobs=(kon^2∗(2−[NSH3])^2+koff^2+2konkoff(2+[NSH3]))^1/2
(§2) Kinetic binding experiments were performed on a single-mixing SX-18 stopped-flow instrument (Applied Photophysics), by mixing a constant concentration (0.5 μM) of C3G dansylated versus increasing concentrations of N-SH3 at 10 °C. Ionic strength dependence of wt N-SH3 was performed with concentrations ranging from 1 to 5 µM for 0 M NaCl condition and from 0.5 to 5 µM for 0.15 M, 0.3 M, 0.5 M and 1 M NaCl, buffer Hepes 50 mM pH 7.0. The excitation wavelength was 280 nm, and fluorescence was collected using a 455 nm cut-off filter. At least, five independent acquisitions were collected and averaged for each experiment. The resulting averages were all satisfactorily fitted with a single-exponential equation. Buffers used for pH dependence were: 50 mM Sodium Acetate pH 5.0, 50 mM Sodium Acetate, pH 5.5, Bis–Tris 50 mM pH 6.0, Bis–Tris 50 mM pH 6.5, Hepes 50 mM pH 7.0, Hepes 50 mM pH 7.5, Tris–HCl 50 mM pH 8.0, Tris–HCl 50 mM pH 8.5, Tris–HCl 50 mM pH 9.0, all with added 0.5 M NaCl. Concentrations of N-SH3 used for each experiment were: 4.0–8.0 µM at pH 5.0, 2.0–7.0 µM at pH 5.5, 1.0–5.0 µM at pH 6.0, 0.5–5.0 µM at pH 6.5, 1.5–6.0 µM at pH 7.0, 0.5–5.0 µM at pH 7.5, 1.5–6.0 µM at pH 8.0, 1.5–6.0 µM pH 8.5, 1.5–6.0 µM at pH 9.0. […]

The target of assay [2] is T2, N-SH3 E140A (Crkl) (Homo sapiens, UniProt P46109, E140A).
T2 construct: The construct encoding the N-SH3 domain of Crkl was subcloned in a pET28b+ plasmid vector; His-tag; made in house; host or cells: E. coli BL21
The assay can be described thus: Stopped-flow kinetic binding, N-SH3 E140A versus C3G277–296. Conditions: pH 7.5, E140A, 50 mM Hepes pH 7.5, 10 °C. On the procedure: as §1
Then, we employed D138A, E140A and D141A variants in kinetic binding experiments with C3G, and we explored the effect of increasing ionic strength on the binding reaction of these variants.
as §2, with “NaCl.” for “NaCl. Concentrations of N-SH3 used for each experiment were: 4.0–8.0 µM at pH 5.0, 2.0–7.0 µM at pH 5.5, 1.0–5.0 µM at pH 6.0, 0.5–5.0 µM at pH 6.5, 1.5–6.0 µM at pH 7.0, 0.5–5.0 µM at pH 7.5, 1.5–6.0 µM at pH 8.0, 1.5–6.0 µM pH 8.5, 1.5–6.0 µM at pH 9.0.”

Assay [3] concerns the target T2, N-SH3 E140A (Crkl). The assay can be described thus: Stopped-flow displacement, N-SH3 E140A:dansylated C3G277–296 complex. In kind it is binding. Conditions: pH 7.5, E140A, 50 mM Hepes pH 7.5, 10 °C. As to the method: as §1, §2

This note sets out measurements from PMC8705818, “Experimental Characterization of the Interaction between the N-Terminal SH3 Domain of Crkl and C3G” (International Journal of Molecular Sciences, 2021).

The term koff denotes the first-order rate constant of dissociation. A word on the kon: it is the rate constant with which the complex forms. The low end stands for slower complex formation, the high end for faster complex formation.

Peptide text beside a SMILES is read from it. * marks the point of attachment. Dansyl = CN(C)c1cccc2c(S(=O)(=O)*)cccc12

T2 sequence (P46109 123-183 E140A limits assumed): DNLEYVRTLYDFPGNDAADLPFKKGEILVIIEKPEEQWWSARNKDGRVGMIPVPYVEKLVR
T1 sequence (P46109 123-183 D138A limits assumed): as the sequence (P46109 123-183 E140A limits assumed) above, with D16A, A18E counted along it

For the compound `CC(C)C[C@H](NC(=O)[C@H](C)NC(=O)[C@@H]1CCCN1C(=O)[C@@H]1CCCN1C(=O)[C@@H]1CCCN1C(=O)[C@H](CO)NC(=O)[C@H](CC(N)=O)NC(=O)[C@H](CC(=O)O)NC(=O)[C@@H](NC(=O)[C@@H](NS(=O)(=O)c1cccc2c(N(C)C)cccc12)C(C)C)C(C)C)C(=O)N1CCC[C@H]1C(=O)N1CCC[C@H]1C(=O)N[C@@H](CCCCN)C(=O)N[C@@H](CCCCN)C(=O)N[C@@H](CCCNC(=N)N)C(=O)N[C@@H](CCC(N)=O)C(=O)N[C@@H](CO)C(=O)N[C@@H](C)C(=O)N1CCC[C@H]1C(=O)N[C@@H](CO)C(=O)O` [C3G277–296] (Dansyl-VVDNSPPPALPPKKRQSAPS-OH), the koff in assay [1] (0 M NaCl) came out at 139 ± 1 s⁻¹; in assay [1] (0.05 M NaCl) it was 212 ± 2 s⁻¹; in assay [1] (0.10 M NaCl) it was 183 ± 2 s⁻¹; in assay [1] (0.15 M NaCl), 254 ± 2 s⁻¹; in assay [3] (0 M NaCl), 254 ± 3 s⁻¹; in assay [3] (0.05 M NaCl), 330 ± 3 s⁻¹. Also, the results for the koff in assay [3] (0.10 M NaCl) and in assay [3] (0.15 M NaCl) were 302 ± 2 s⁻¹ and 339 ± 2 s⁻¹, respectively. Besides, the kon in assay [2] (0 M NaCl, 0.5 µM dansylated peptide vs 2.0–4.5 µM N-SH3 E140A) was 7.8e+07 ± 6e+06 M⁻¹ s⁻¹; in assay [2] (0.05 M NaCl, 0.5 µM dansylated peptide vs 3.0–5.5 µM N-SH3 E140A) it was 8.9e+07 ± 8e+06 M⁻¹ s⁻¹; in assay [2] (0.10 M NaCl, 0.5 µM dansylated peptide vs 3.0–5.0 µM N-SH3 E140A), 7.7e+07 ± 8e+06 M⁻¹ s⁻¹; in assay [2] (0.15 M NaCl, 0.5 µM dansylated peptide vs 3.0–5.5 µM N-SH3 E140A) it was 8.1e+07 ± 8e+06 M⁻¹ s⁻¹.
